The source made the active and inactive calls. The calls are words filed in the database; no cut-off is given here.
Key:
MDA-MB-231 [1] = test: Antiproliferative activity against human MDA-MB-231 cells assessed as reduction in cell viability incubated for 2 days in presence of tert-butyl 2-(4-methyl-2-((2-oxo-6-(trifluoromethyl)indolin-3-ylidene)methyl)phenoxy)acetate by CCK8 assay; format: functional, cell-based; conditions: MDA-MB-231, 48 h
MDA-MB-231 [2] = test: Induction of apoptosis in human MDA-MB-231 cells assessed as increase in cleaved PARP level by immunoblot analysis; format: functional, cell-based
MDA-MB-231 [3] = test: Antiproliferative activity against human MDA-MB-231 cells assessed as reduction in cell viability incubated for 2 days by CCK8 assay; format: functional, cell-based; conditions: MDA-MB-231, 48 h
MDA-MB-231 [4] = test: Induction of apoptosis in human MDA-MB-231 cells assessed as increase in cleaved caspase-7 level by immunoblot analysis; format: functional, cell-based
MDA-MB-468 [5] = test: Antiproliferative activity against human MDA-MB-468 cells assessed as reduction in cell viability incubated for 2 days in presence of tert-butyl 2-(4-methyl-2-((2-oxo-6-(trifluoromethyl)indolin-3-ylidene)methyl)phenoxy)acetate by CCK8 assay; format: functional, cell-based; conditions: MDA-MB-468, 48 h
MDA-MB-468 [6] = test: Antiproliferative activity against human MDA-MB-468 cells assessed as reduction in cell viability incubated for 2 days by CCK8 assay; format: functional, cell-based; conditions: MDA-MB-468, 48 h
MDA-MB-231 [7] = test: Induction of BRD4 degradation in human MDA-MB-231 cells at 10 uM incubated for 12 hrs by immunoblot analysis; format: cell-based
DCAF11-BRD4 [8] = target: T1, DCAF11-BRD4 (Homo sapiens, UniProt O60885+Q8TEB1); test: PROTAC activity at DCAF11/BRD4 in human MDA-MB-231 cells assessed as induction of BRD4 degradation at 10 uM incubated for 12 hrs by immunoblot analysis; format: cell-based
T1 sequence (Q8TEB1 whole entry, looked up, other chains not shown): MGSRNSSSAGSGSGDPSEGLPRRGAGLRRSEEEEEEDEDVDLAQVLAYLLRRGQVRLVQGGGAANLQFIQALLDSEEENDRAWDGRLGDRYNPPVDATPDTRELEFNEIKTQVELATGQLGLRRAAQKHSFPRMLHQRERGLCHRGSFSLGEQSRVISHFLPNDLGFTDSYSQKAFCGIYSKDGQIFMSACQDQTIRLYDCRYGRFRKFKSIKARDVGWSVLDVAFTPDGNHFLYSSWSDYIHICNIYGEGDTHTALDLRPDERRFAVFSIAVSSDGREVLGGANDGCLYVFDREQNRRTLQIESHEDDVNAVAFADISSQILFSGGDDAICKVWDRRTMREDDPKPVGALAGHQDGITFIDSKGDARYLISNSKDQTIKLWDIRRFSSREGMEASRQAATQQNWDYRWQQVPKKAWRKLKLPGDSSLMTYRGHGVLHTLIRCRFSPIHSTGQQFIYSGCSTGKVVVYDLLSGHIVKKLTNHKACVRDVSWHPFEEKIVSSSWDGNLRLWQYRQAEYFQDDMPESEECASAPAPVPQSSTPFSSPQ

MDA-MB-231 [9] = test: Antiproliferative activity against human MDA-MB-231 cells assessed as reduction in cell viability incubated for 2 days in presence of JQ1 by CCK8 assay; format: functional, cell-based; conditions: MDA-MB-231, 48 h
MDA-MB-468 [10] = test: Antiproliferative activity against human MDA-MB-468 cells assessed as reduction in cell viability incubated for 2 days in presence of JQ1 by CCK8 assay; format: functional, cell-based; conditions: MDA-MB-468, 48 h
DCAF11-BRD4 [11] = target: T1, DCAF11-BRD4; test: PROTAC activity at DCAF11/BRD4 in human MDA-MB-468 cells assessed as induction of BRD4 degradation at 1 uM incubated for 12 hrs by immunoblot analysis; format: cell-based
DCAF11-BRD4 [12] = target: T1, DCAF11-BRD4; test: Binding affinity to HA-tagged DCAF11/Flag-tagged BRD4 BD1 domain (unknown origin) expressed in HEK293T cells by co-immunoprecipitation analysis; format: cell-based
DCAF11-BRD4 [13] = target: T1, DCAF11-BRD4; test: PROTAC activity at DCAF11/BRD4 BD1 domain (unknown origin) expressed in HEK293T cells assessed as induction of BRD4 degradation at 1 uM incubated for 12 hrs by Dual fluorescence reporter cell high content imaging analysis relative to control; format: cell-based
DCAF11-BRD4 [14] = target: T1, DCAF11-BRD4; test: Binding affinity to DCAF11/BRD4 BD1 domain in HEK293T cells by co-immunoprecipitation analysis; format: cell-based
DCAF11-BRD4 [15] = target: T1, DCAF11-BRD4; test: PROTAC activity at DCAF11/BRD4 in human MDA-MB-231 cells assessed as induction of BRD4 degradation at 1 uM preincubated with MLN4924 for 1 hrs and measured after compound addition by immunoblot analysis; format: cell-based
DCAF11-BRD4 [16] = target: T1, DCAF11-BRD4; test: PROTAC activity at DCAF11/BRD4 in human MDA-MB-231 cells assessed as induction of BRD4 degradation incubated for 12 hrs by immunoblot analysis; format: cell-based; conditions: dose 0.1-1000 nM
MDA-MB-231 [17] = test: Inhibition of cell migration in human MDA-MB-231 cells at 0.1 to 1 uM measured after 48 hrs by crystal violet staining based transwell migration assay; format: functional; conditions: dose 0.1-1 µM
DCAF11-BRD4 [18] = target: T1, DCAF11-BRD4; test: PROTAC activity at DCAF11/BRD4 in human MDA-MB-231 cells assessed as induction of BRD4 degradation at 10 nM incubated for 12 hrs by immunoblot analysis; format: cell-based
DCAF11-BRD4 [19] = target: T1, DCAF11-BRD4; test: PROTAC activity at DCAF11/BRD4 in human MDA-MB-231 cells assessed as induction of BRD4 degradation at 1 uM incubated for 12 hrs in presence of tert-butyl 2-(4-methyl-2-((2-oxo-6-(trifluoromethyl)indolin-3-ylidene)methyl)phenoxy)acetate by immunoblot analysis; format: cell-based
DCAF11-BRD4 [20] = target: T1, DCAF11-BRD4; test: PROTAC activity at DCAF11/BRD4 in human MDA-MB-231 cells assessed as induction of BRD4 degradation at 1 to 100 nM incubated for 1 hrs by Western blot analysis; format: cell-based; conditions: dose 1-100 nM
DCAF11-BRD4 [21] = target: T1, DCAF11-BRD4; test: PROTAC activity at DCAF11/BRD4 in human MCF7 cells assessed as induction of BRD4 degradation at 1 uM incubated for 12 hrs by immunoblot analysis; format: cell-based
HCC1937 = test: Antiproliferative activity against human HCC1937 cells assessed as reduction in cell viability incubated for 2 days by CCK8 assay; format: functional, cell-based; conditions: HCC1937, 48 h
DCAF11-BRD4 [22] = target: T1, DCAF11-BRD4; test: PROTAC activity at DCAF11/BRD4 in human HCC1937 cells assessed as induction of BRD4 degradation at 1 uM incubated for 12 hrs by immunoblot analysis; format: cell-based
DCAF11-BRD4 [23] = target: T1, DCAF11-BRD4; test: PROTAC activity at DCAF11/BRD4 in human MDA-MB-231 cells assessed as induction of BRD4 degradation at 1 uM measured within 1 hrs by immunoblot analysis; format: cell-based
T47D = test: Antiproliferative activity against human T47D cells assessed as reduction in cell viability incubated for 2 days by CCK8 assay; format: functional, cell-based; conditions: 48 h
DCAF11-BRD4 [24] = target: T1, DCAF11-BRD4; test: PROTAC activity at DCAF11/BRD4 in human MDA-MB-231 cells assessed as induction of BRD4 degradation at 1 uM preincubated with PYR41 for 1 hrs and measured after compound addition by immunoblot analysis; format: cell-based
DCAF11-BRD4 [25] = target: T1, DCAF11-BRD4; test: PROTAC activity at DCAF11/BRD4 in human MDA-MB-157 cells assessed as induction of BRD4 degradation at 1 uM incubated for 12 hrs by immunoblot analysis; format: cell-based
DCAF11-BRD4 [26] = target: T1, DCAF11-BRD4; test: PROTAC activity at DCAF11/BRD4 BD1 domain (unknown origin) expressed in HEK293T cells assessed as induction of BRD4 degradation at 10 to 100 nM incubated for 12 hrs by Dual fluorescence reporter cell high content imaging analysis; format: cell-based; conditions: dose 10-100 nM
DCAF11-BRD4 [27] = target: T1, DCAF11-BRD4; test: PROTAC activity at DCAF11/BRD4 in human MDA-MB-231 cells assessed as induction of BRD4 degradation at 1 uM incubated for 12 hrs in presence of JQ1 by immunoblot analysis; format: cell-based
DCAF11-BRD4 [28] = target: T1, DCAF11-BRD4; test: PROTAC activity at DCAF11/BRD4 in human T47D cells assessed as induction of BRD4 degradation at 1 uM incubated for 12 hrs by immunoblot analysis; format: cell-based
MCF7 = test: Antiproliferative activity against human MCF7 cells assessed as reduction in cell viability incubated for 2 days by CCK8 assay; format: functional, cell-based; conditions: MCF7, 48 h
DCAF11-BRD4 [29] = target: T1, DCAF11-BRD4; test: PROTAC activity at DCAF11/BRD4 in human MDA-MB-231 cells assessed as induction of BRD4 degradation at 1 uM preincubated with bafilomycin A1 for 1 hrs and measured after compound addition by immunoblot analysis; format: cell-based
DCAF11-BRD4 [30] = target: T1, DCAF11-BRD4; test: PROTAC activity at DCAF11/BRD4 in human MDA-MB-231 cells assessed as induction of BRD4 degradation at 1 uM preincubated with chloroquine for 1 hrs and measured after compound addition by immunoblot analysis; format: cell-based
BT-549 = test: Antiproliferative activity against human BT-549 cells assessed as reduction in cell viability incubated for 2 days by CCK8 assay; format: functional, cell-based; conditions: BT-549, 48 h
MDA-MB-231 [31] = test: Effect on BRD4 mRNA gene expression in human MDA-MB-231 cells at 0.1 to 1 microM incubated for 12 hrs by qPCR analysis; format: functional, cell-based; conditions: dose 0.1-1 µM
MDA-MB-157 = test: Antiproliferative activity against human MDA-MB-157 cells assessed as reduction in cell viability incubated for 2 days by CCK8 assay; format: functional, cell-based; conditions: MDA-MB-157, 48 h
MDA-MB-231 [32] = test: Downregulation of BRD4 protein expression in human MDA-MB-231 cells at 1 uM incubated for 6 hrs by proteomic analysis; format: functional, cell-based
HEK293T [33] = test: Induction of BRD4 BD1 domain (unknown origin) degradation expressed in DCAF11 knockout HEK293T cells at 1 uM incubated for 12 hrs by immunoblot analysis; format: cell-based; conditions: Homo sapiens
HEK293T [34] = test: Induction of BRD4 BD1 domain (unknown origin) degradation expressed in DCAF11 knockout HEK293T cells assessed as decrease in red fluorescence at 1 uM incubated for 12 hrs by dual fluorescence reporter cell based high content imaging analysis; conditions: Homo sapiens
DCAF11-BRD4 [35] = target: T1, DCAF11-BRD4; test: PROTAC activity at DCAF11/BRD4 in human MDA-MB-231 cells assessed as induction of BRD4 degradation at 1 uM preincubated with MG132 for 1 hrs and measured after compound addition by immunoblot analysis; format: cell-based
DCAF11-BRD4 [36] = target: T1, DCAF11-BRD4; test: PROTAC activity at DCAF11/BRD4 in human MDA-MB-231 cells assessed as induction of BRD4 degradation by immunoblot analysis; format: cell-based
DCAF11-BRD4 [37] = target: T1, DCAF11-BRD4; test: PROTAC activity at DCAF11/BRD4 in human MDA-MB-231 cells assessed as induction of BRD4 degradation at 1 uM preincubated with bortezomib for 1 hrs and measured after compound addition by immunoblot analysis; format: cell-based
DCAF11-BRD4 [38] = target: T1, DCAF11-BRD4; test: PROTAC activity at DCAF11/BRD4 in human BT-549 cells assessed as induction of BRD4 degradation at 1 uM incubated for 12 hrs by immunoblot analysis; format: cell-based
DCAF11-BRD4 [39] = target: T1, DCAF11-BRD4; test: PROTAC activity at DCAF11/BRD4 in human MDA-MB-231 cells assessed as induction of BRD4 degradation at 10 to 100 nM incubated for 1 hrs by immunoblot analysis; format: cell-based; conditions: dose 10-100 nM

Cc1sc2c(c1C)C(c1ccc(Cl)cc1)=N[C@@H](CC(=O)O)c1nnc(C)n1-2
IC50 (MDA-MB-231 [1]): 3.71 µM
Activity (MDA-MB-231 [2]): inactive
IC50 (MDA-MB-231 [3]): 5.13 µM
Activity (MDA-MB-231 [4]): inactive
IC50 (MDA-MB-468 [5]): 10 µM
IC50 (MDA-MB-468 [6]): 25.9 µM
Activity (MDA-MB-231 [7]): inactive

Cc1ccc(OCC(=O)OC(C)(C)C)c(/C=C2\C(=O)Nc3cc(C(F)(F)F)ccc32)c1
Activity (MDA-MB-231 [2]): inactive
Activity (DCAF11-BRD4 [8]): inactive
IC50 (MDA-MB-231 [3]): 11.4 µM
Activity (MDA-MB-231 [4]): inactive
IC50 (MDA-MB-231 [9]): 3.71 µM
IC50 (MDA-MB-468 [6]): 26.6 µM
IC50 (MDA-MB-468 [10]): 10 µM

Cc1ccc(OCC(=O)NCCCOCCOCCOCCCNC(=O)C[C@@H]2N=C(c3ccc(Cl)cc3)c3c(sc(C)c3C)-n3c(C)nnc32)c(/C=C2\C(=O)Nc3cc(C(F)(F)F)ccc32)c1 (stereo in doubt)
Activity (DCAF11-BRD4 [11]): Active
Activity (DCAF11-BRD4 [12]): Active
Activity (DCAF11-BRD4 [13]): > 35%
Activity (DCAF11-BRD4 [14]): Active
Activity (DCAF11-BRD4 [15]): inactive
Activity (DCAF11-BRD4 [16]): Dose-dependent-effect
inhibition (MDA-MB-231 [17]): Active
Activity (MDA-MB-231 [2]): Active
Activity (DCAF11-BRD4 [18]): Active
Activity (DCAF11-BRD4 [19]): inactive
Activity (DCAF11-BRD4 [20]): Active; Degradation Capability Comparable To Dbet6 And Mz1
Activity (DCAF11-BRD4 [21]): Active
IC50 (HCC1937): 0.18 µM
Activity (DCAF11-BRD4 [22]): Active
IC50 (MDA-MB-231 [3]): 0.07 µM
Activity (DCAF11-BRD4 [23]): Active
IC50 (T47D): 0.63 µM
Activity (DCAF11-BRD4 [24]): inactive
Activity (DCAF11-BRD4 [25]): Active
Activity (MDA-MB-231 [4]): Active
IC50 (MDA-MB-468 [6]): 0.02 µM
Activity (DCAF11-BRD4 [26]): Active
Activity (DCAF11-BRD4 [27]): inactive
Activity (DCAF11-BRD4 [28]): Active
IC50 (MCF7): 2.85 µM
Activity (DCAF11-BRD4 [29]): Active
Activity (DCAF11-BRD4 [30]): Active
IC50 (BT-549): 6.37 µM
Activity (MDA-MB-231 [31]): inactive
IC50 (MDA-MB-157): 0.1 µM
Activity (MDA-MB-231 [32]): Active
Activity (HEK293T [33]): inactive
Activity (HEK293T [34]): inactive
Activity (DCAF11-BRD4 [35]): inactive
DC50 (DCAF11-BRD4 [36]): 0.00736 µM
Activity (DCAF11-BRD4 [37]): inactive
Activity (DCAF11-BRD4 [38]): Active
Activity (DCAF11-BRD4 [39]): Active

— ChEMBL document CHEMBL6078642, “Design, Synthesis, and Activity Evaluation of BRD4 PROTAC Based on Alkenyl Oxindole-DCAF11 Pair” (J Med Chem, 2024)
